{
  "source": "patent US20200289566A1",
  "about": "“COMPOSITIONS FOR IMPROVING CAR-T CELL FUNCTIONALITY AND USE THEREOF” (PROSPECT CHARTERCARE RWMC, LLC D/B/A ROGER WILLIAMS MEDICAL …, priority 2017, published 2020)",
  "type_in_all_cases": "cell-based, human",
  "key": {"[1]": {"test_system": "IL13Rα2-activated IL13CAR-T cells", "assay": "Flow cytometry of T-bet and PD-1 expression", "method": "(§1) Purified rat anti-human IL13 antibody and allophycocyanin (APC)-conjugated anti-rat antibody was used to measure IL13CAR expression. Anti-human CD3-FITC was used in certain experiments for identifying T cells. For CD4:CD8 analysis of IL13CAR-T cells, anti-human CD4-FITC and anti-human CD8-PE.Cy7 were used in CAR-T cells that were positive for IL13CAR expression. FasL expression and PD-1 expression on activated IL13CAR-T cells was measured by staining with anti-human FasL-FITC (Thermo-Fisher) anti-human PD1-FITC respectively. Anti-human CD127-FITC, anti-human CD62L-PE, Anti-human CCR7-FITC anti-human CD45RO-PE and anti-human CD45RA-PE.Cy7 were used for flow cytometric measurement of T cell memory marker. Respective isotype controls or antibody controls (where applicable) were used to draw positive gates for each experiment. All antibodies were procured from either BD Biosciences or eBisociences. For intranuclear staining of β-catenin localization, nuclear permeabilization of CAR-T cells was achieved using FoxP3 staining buffer (eBioscience-Affymetrix, San Diego, Calif.) and staining with anti-human β-catenin rabbit mAb (Cell Signaling Technologies, Danvers Mass.) and anti-rabbit IgG conjugated with Alexa Fluor (AF) 488 or 647 (Cell Signaling Technologies).\n(§2) GSK3 inhibition reduces PD-1 mediated T cells exhaustion, which is dependent on T-bet expression (Taylor et al., Immunity 44: 274-286. 2016), and GSK3β pathway directly regulates T-bet expression in activated T cells (Verma et al., J Immunol 197: 108-118, 2016). Significant survival advantage of GSK3β inhibition in activated T cells prompted us to study T-bet and PD-1 expression in IL13Rα2-activated IL13CAR-T cells."}, "[2]": {"test_system": "IL13Rα2-Fc activated CAR-T cells", "assay": "Intranuclear β-catenin accumulation by flow cytometry", "settings": "36-48 hours", "method": "as §1, with “For intranuclear staining of β-catenin localization, nuclear permeabilization of CAR-T cells was achieved using FoxP3 staining buffer (eBioscience-Affymetrix, San Diego, Calif.) and staining with anti-human β-catenin rabbit mAb (Cell Signaling Technologies, Danvers Mass.) and anti-rabbit IgG conjugated with Alexa Fluor (AF) 488 or 647 (Cell Signaling Technologies).” left out\nExperiments were conducted to understand the molecular mechanism of GSK3β-inhibition on activated T cell expansion. […] IL13Rα2-Fc activated CAR-T cells were treated with or without SB216763 for 36-48 hours and measured for intra-nuclear accumulation of β-catenin by flow cytometry. […]"}, "[3]": {"test_system": "IL13Rα2-Fc activated IL13CAR-T cells", "assay": "T cell survival assay (viability by flow cytometry, live-dead gating, 14 days)", "settings": "SB216763 20 μM, IL13Rα2-Fc 1 μg/ml, absence of added IL2", "method": "(§3) Untransduced or IL13CAR-T cells (1×10^6) were activated with IL13Rα2-Fc chimera at specific concentrations in 24 well plates, with or without GSK3β inhibitor (SB216763, 20 μM; Sigma, St Louis, Mo.) or added IL2 in the culture medium. IL13CAR-T cell survival assays were performed as described above for 14 days. Long-time survival of IL13CAR-T cells following GSK3β inhibition was measured by flow cytometry using live-dead gating (Sengupta et al., Immunobiology 210: 647-659, 2005). Activated T cell death (ATCD) was measured by flow cytometric reading of FasL expression (FITC; Thermo-Fisher) on activated IL13CAR-T cells.\nIL13CAR-T cells (32% CAR+) were cultured for 14 days in the presence of soluble IL13Rα2-Fc (1 μg/ml) and GSK3β inhibitor (SB216763; 20 μM) in RPMI1640 medium supplemented with 10% FBS and antibiotics, with or without added IL2. Cells were harvested at days 1, 4, 7, 10 and 14 and stained for CD3 and IL13CAR expression, and viability of cells were measured by flow cytometry and analyzed for viability as described earlier. […] The loss in viability was rescued by addition of IL2 in culture conditions (FIG. 1A; Top Panel; close squares) or inhibition of GSK3β with SB216763 in absence of added IL2 (FIG. 1A; Bottom Panel; open squares). […] To confirm this phenomenon FasL expression was measured in IL13Rα2-Fc treated CAR-T cells at day 14. […]"}, "[4]": {"test_system": "IL13Rα2-Fc activated IL13CAR-T cells", "assay": "Activated T cell death (ATCD): flow cytometric FasL expression", "method": "Purified rat anti-human IL13 antibody and allophycocyanin (APC)-conjugated anti-rat antibody was used to measure IL13CAR expression. Anti-human CD3-FITC was used in certain experiments for identifying T cells. For CD4:CD8 analysis of IL13CAR-T cells, anti-human CD4-FITC and anti-human CD8-PE.Cy7 were used in CAR-T cells that were positive for IL13CAR expression. FasL expression and PD-1 expression on activated IL13CAR-T cells was measured by staining with anti-human FasL-FITC (Thermo-Fisher) anti-human PD1-FITC respectively. […]\nas §3, with “IL13CAR-T cell survival assays were performed as described above for 14 days.” left out\nIL13CAR-T cells (32% CAR+) were cultured for 14 days in the presence of soluble IL13Rα2-Fc (1 μg/ml) and GSK3β inhibitor (SB216763; 20 μM) in RPMI1640 medium supplemented with 10% FBS and antibiotics, with or without added IL2. […] To confirm this phenomenon FasL expression was measured in IL13Rα2-Fc treated CAR-T cells at day 14. […]"}, "[5]": {"test_system": "IL13Rα2-Fc activated IL13CAR-T cells", "assay": "T cell memory marker expression by flow cytometry", "settings": "7 days", "method": "as §1\nExperiments were conducted to test the effects of SB216763 treatment on memory generation in IL13Rα2-Fc activated IL13CAR-T populations. IL13CAR-T cells were activated with increasing concentrations of IL13Rα2-Fc (0-1 μg/ml) in the presence or absence of SB216763 for 7 days. Cell surface expression of T cell memory markers were measured by flow cytometry. Since memory generation was monitored as a functional derivative of CD8+ T cells, experiments were conducted to additionally measure the intracellular expression of IL7R (CD127) expression as a marker of CD8+ memory CAR-T cell homeostasis."}, "[6]": {"test_system": "IL13Rα2-Fc activated IL13CAR-T cells", "assay": "qPCR of TBX21, PDCD1 and IFNG genes", "settings": "normalized to GAPDH", "method": "Total RNA was isolated from IL13CAR-T cells using the RNeasy Mini Kit according to the manufacturer's protocol (Qiagen). cDNA was prepared from RNA using iScript cDNA Synthesis Kit (Biorad, Carlsbad, Calif.). qPCR was performed targeting IFNG, TBX21, and PDCD1 genes using SyBR Green PCR master Mix (Applied Biosystems). CT values of target genes were normalized to that of housekeeping gene GAPDH, and relative gene expression was calculated using ΔΔCT method.\nas §2"}, "IL13CAR-T cells": {"test_system": "IL13CAR-T cells", "assay": "CFSE dilution T cell proliferation assay", "settings": "72 hours", "method": "Carboxyfluorescein succinimidyl ester (CFSE; 0.5 μg/ml; Invitrogen) was used to measure T cell proliferation by flow cytometry.\nTo further understand the mechanism, CAR-T cells were stained with CFSE and were cultured either unstimulated or treated with IL13Rα2-Fc±SB216763 for 72 hours. CFSE is a fluorescent cell staining dye and can be used to monitor lymphocyte proliferation, both in vitro and in vivo, due to the progressive halving of CFSE fluorescence within daughter cells following each cell division (Lyons et al., Journal of immunological methods 171: 131-137, 1994)."}},
  "data": [
    {"smiles": "Cn1cc(C2=C(c3ccc(Cl)cc3Cl)C(=O)NC2=O)c2ccccc21", "note": "[SB216763, 3-(2,4-Dichlorophenyl)-4-(1-methyl-1H-indol-3yl)-1H-pyrrole-2,5-dione]", "values": [
      {"measurement": "T-bet expression (FACS)", "setting": "[1]; activated IL13CAR-T cells, GSK3β inhibition", "value": "significant upregulation"},
      {"measurement": "frequency of PD-1+ IL13CAR-T cells", "setting": "[1]; activated, GSK3β inhibited", "value": 17.3, "unit": "%"},
      {"measurement": "reduction in PD-1 expression", "setting": "[1]; versus activated IL13CAR-T cells not treated", "value": 60, "unit": "%"},
      {"measurement": "nuclear β-catenin MFI", "setting": "[2]; SB216763 treated", "value": 1618, "unit": "MFI"},
      {"measurement": "increased accumulation of β-catenin in the nucleus", "setting": "[2]; versus untreated activated CAR-T cells", "value": 66, "unit": "%"},
      {"measurement": "loss in viability of activated IL13CAR-T cells", "setting": "[3]", "value": "rescued"},
      {"measurement": "frequency of activated CAR-T cells expressing FasL", "setting": "[4]; day 14, SB216763 treated", "value": 25.3, "unit": "%"},
      {"measurement": "reduction of FasL expression", "setting": "[4]; day 14, versus activated CAR-T cells not treated with the inhibitor", "value": 55, "unit": "%"},
      {"measurement": "CCR7 expression", "setting": "[5]", "value": "no difference"},
      {"measurement": "CD45RA expression", "setting": "[5]", "value": "no difference"},
      {"measurement": "CD62L expression", "setting": "[5]", "value": "complete inhibition"},
      {"measurement": "increase in CD45RO", "setting": "[5]; IL13Rα2-Fc 0-1 μg/ml", "value": 4, "unit": "fold"},
      {"measurement": "increase in CD127", "setting": "[5]; IL13Rα2-Fc 0-1 μg/ml", "value": 10, "unit": "fold"},
      {"measurement": "decrease in PDCD1 (PD-1) gene expression", "setting": "[6]", "value": 5, "unit": "fold"},
      {"measurement": "increase in TBX21 (T-bet) gene expression", "setting": "[6]", "value": 90, "unit": "fold"},
      {"measurement": "proliferation of IL13Rα2-Fc activated CAR-T cells", "setting": "IL13CAR-T cells", "value": "increased proliferation"},
      {"measurement": "proliferation of unstimulated CAR-T cells", "setting": "IL13CAR-T cells", "value": "no such efforts"}
    ]}
  ]
}
